As usually defined, the IC50 is the midpoint of a concentration-inhibition curve. Low values mean inhibition by little substance, high ones a need for much substance. As usually defined, the GI50 is the concentration that inhibits growth by half.

Consider nine compounds from patent EP4722212A1, “NOVEL COMPOUND FOR INHIBITING PROTEIN KINASES AND PHARMACEUTICAL COMPOSITION COMPRISING SAME” (Magicbullettherapeutics Co., Ltd., priority 2023, dated 2024).

Bounds are passed on as bounds.

In one test the target is T1, ACK1 (Homo sapiens, UniProt Q07912).
T1 construct: purchased Reaction Biology (RBC)
As to the kind of experiment: Enzyme activity inhibition (Reaction Biology). The class given is biochemical. Here is the method: (§1) [* <10 nM: A, <100 nM: B, >100 nM: C]. [Table 7]

The target in another test is T2, Src (Homo sapiens, UniProt P12931).
T2 construct: purchased Reaction Biology (RBC)
Briefly: Enzyme activity inhibition (Reaction Biology). The class given is biochemical. As for the experimental part:
as §1

The next test deals with T3, BMX (Homo sapiens, UniProt P51813).
T3 construct: purchased Reaction Biology (RBC)
T3 sequence (P51813 1-675): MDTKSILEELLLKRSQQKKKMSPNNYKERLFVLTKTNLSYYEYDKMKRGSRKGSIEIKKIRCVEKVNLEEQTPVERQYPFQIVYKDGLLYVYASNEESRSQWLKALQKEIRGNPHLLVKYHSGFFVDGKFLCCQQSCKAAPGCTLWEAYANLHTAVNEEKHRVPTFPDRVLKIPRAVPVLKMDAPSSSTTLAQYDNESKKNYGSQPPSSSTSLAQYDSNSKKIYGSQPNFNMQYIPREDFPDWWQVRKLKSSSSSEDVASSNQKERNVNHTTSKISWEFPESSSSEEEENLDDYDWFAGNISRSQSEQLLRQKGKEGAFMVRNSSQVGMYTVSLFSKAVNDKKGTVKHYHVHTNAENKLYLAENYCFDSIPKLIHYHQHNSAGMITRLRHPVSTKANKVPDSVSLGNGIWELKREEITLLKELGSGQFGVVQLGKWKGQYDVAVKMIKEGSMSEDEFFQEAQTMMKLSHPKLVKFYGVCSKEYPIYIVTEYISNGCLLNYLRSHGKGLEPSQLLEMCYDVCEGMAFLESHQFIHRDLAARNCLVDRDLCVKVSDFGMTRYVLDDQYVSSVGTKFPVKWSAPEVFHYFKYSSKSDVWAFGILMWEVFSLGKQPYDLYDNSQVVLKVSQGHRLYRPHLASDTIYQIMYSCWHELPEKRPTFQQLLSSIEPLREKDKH
Briefly: Enzyme activity inhibition (Reaction Biology). The class given is biochemical. As for the experimental part: as §1

The next test has as its system SW480. Briefly: Cell line inhibition analysis (CCK-8, 72 h). The class given is cell-based. The conditions noted are these: Homo sapiens, read-out: Cell growth inhibition GI50 SW480. Here is the method:
(§2) C4-2B and 22Rv1 cells were purchased from ATCC and cultured according to the manufacturer's instructions. The cells were seeded in 96-well plates at 7×10^3cells/100 µl/well and allowed to attach for one day. After removing the culture medium, 90 µl/well of fresh culture medium was added, followed by addition of 10 µl/well of culture medium containing compounds at nine concentrations (0.076-500 µM) serially diluted 3-fold and DMSO control to achieve final concentrations of 0-50 µM, and then cultured for 72 hours in a 37 °C CO2 incubator. Cell proliferation after 72 hours was assessed by adding 10 µl/well of CCK-8 solution, orbital shaking for 30 seconds, then incubating at 37 °C CO2 incubator for 2 hours and measuring absorbance at 450 nm using a microplate reader. The measured absorbance values were corrected by subtracting the absorbance of wells containing only culture medium and CCK-8 solution, and GI50 values were calculated using GraphPad Prism 8 software.
(§3) Meanwhile, in a separate 96-well plate, cells were seeded at 7 × 10^3 cells/100 µl/well, allowed to attach for one day, CCK-8 solution was added, and absorbance was measured to establish the 'Growth (%) = 0' value.
(§4) Furthermore, experiments were conducted on A172, A549, HCI-H460, AsPC-1, MIA-Paca-2, DLD-1, HCT-116, HT-29, SW480, SW620, MDA-MB-231, and SKOV3 cell lines using the same method, with results shown in Tables 9 and 10 below [* <1 µM: A, <5 µM: B, <10 µM: C, >10 µM: D].

A further test has as its system SKOV3. Briefly: Cell line inhibition analysis (CCK-8, 72 h). Type of test: cell-based. The conditions noted are these: Homo sapiens, SK-OV-3; read-out: Cell growth inhibition GI50 SKOV3. Here is the method:
as §2, §3, §4

The test system of a further test is AsPC-1. Briefly: Cell line inhibition analysis (CCK-8, 72 h). The conditions noted are these: Homo sapiens, ASPC1; read-out: Cell growth inhibition GI50 AsPC-1. The class given is cell-based. As for the experimental part:
as §2, §3, §4

The next test relates to MIA-Paca-2. Briefly: Cell line inhibition analysis (CCK-8, 72 h). The class given is cell-based. The conditions noted are these: Homo sapiens, read-out: Cell growth inhibition GI50 MIA-Paca-2. As for the experimental part:
as §2, §3, §4

Another test deals with DLD-1. Briefly: Cell line inhibition analysis (CCK-8, 72 h). Type of test: cell-based. The conditions noted are these: Homo sapiens, read-out: Cell growth inhibition GI50 DLD-1. Here is the method:
as §2, §3, §4

For a further test, the system named is A549. As to the kind of experiment: Cell line inhibition analysis (CCK-8, 72 h). The class given is cell-based. The conditions noted are these: Homo sapiens, read-out: Cell growth inhibition GI50 A549. As for the experimental part: as §2, §3, §4
The next test relates to SW620. Briefly: Cell line inhibition analysis (CCK-8, 72 h). The class given is cell-based. The conditions noted are these: Homo sapiens, SW-620; read-out: Cell growth inhibition GI50 SW620. As for the experimental part:
as §2, §3, §4

The next test relates to A172. Briefly: Cell line inhibition analysis (CCK-8, 72 h). Type of test: cell-based. The conditions noted are these: Homo sapiens, A 172; read-out: Cell growth inhibition GI50 A172. As for the experimental part:
as §2, §3, §4

For another test, the system named is HCI-H460. As to the kind of experiment: Cell line inhibition analysis (CCK-8, 72 h). The class given is cell-based. The conditions noted are these: read-out: Cell growth inhibition GI50 HCI-H460. As for the experimental part: as §2, §3, §4
A further test deals with HT-29. Briefly: Cell line inhibition analysis (CCK-8, 72 h). The class given is cell-based. The conditions noted are these: Homo sapiens, read-out: Cell growth inhibition GI50 HT-29. Here is the method:
as §2, §3, §4

In another test the test system is HCT-116. Briefly: Cell line inhibition analysis (CCK-8, 72 h). Type of test: cell-based. The conditions noted are these: Homo sapiens, read-out: Cell growth inhibition GI50 HCT-116. As for the experimental part:
as §2, §3, §4

Another test concerns MDA-MB-231. Briefly: Cell line inhibition analysis (CCK-8, 72 h). The class given is cell-based. The conditions noted are these: Homo sapiens, read-out: Cell growth inhibition GI50 MDA-MB-231. Here is the method:
as §2, §3, §4

For the next test, the system named is C4-2B. As to the kind of experiment: Cell line inhibition analysis (CCK-8, 72 h). Type of test: cell-based. The conditions noted are these: read-out: Cell growth inhibition GI50 C4-2B. As for the experimental part: as §2, §3
The next test deals with 22Rv1. As to the kind of experiment: Cell line inhibition analysis (CCK-8, 72 h). Type of test: cell-based. The conditions noted are these: Homo sapiens; 22Rv1, 72 hours; read-out: Cell growth inhibition GI50 22Rv1. Here is the method: as §2, §3

T2 sequence (P12931 whole entry): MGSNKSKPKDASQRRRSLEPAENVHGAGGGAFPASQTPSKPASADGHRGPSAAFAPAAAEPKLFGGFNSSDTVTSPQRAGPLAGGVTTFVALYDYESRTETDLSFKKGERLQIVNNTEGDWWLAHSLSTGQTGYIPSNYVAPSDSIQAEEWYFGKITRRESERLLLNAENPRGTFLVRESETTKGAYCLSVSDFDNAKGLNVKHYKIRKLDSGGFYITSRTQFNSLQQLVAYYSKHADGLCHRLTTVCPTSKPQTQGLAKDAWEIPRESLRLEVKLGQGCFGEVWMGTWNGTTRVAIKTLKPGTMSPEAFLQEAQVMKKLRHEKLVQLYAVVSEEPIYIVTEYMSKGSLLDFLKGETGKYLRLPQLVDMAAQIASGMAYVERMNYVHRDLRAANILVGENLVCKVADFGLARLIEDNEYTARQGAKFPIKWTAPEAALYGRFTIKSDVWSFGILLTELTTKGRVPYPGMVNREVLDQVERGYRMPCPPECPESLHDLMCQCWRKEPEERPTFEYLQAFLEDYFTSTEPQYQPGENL
T1 sequence (Q07912 whole entry): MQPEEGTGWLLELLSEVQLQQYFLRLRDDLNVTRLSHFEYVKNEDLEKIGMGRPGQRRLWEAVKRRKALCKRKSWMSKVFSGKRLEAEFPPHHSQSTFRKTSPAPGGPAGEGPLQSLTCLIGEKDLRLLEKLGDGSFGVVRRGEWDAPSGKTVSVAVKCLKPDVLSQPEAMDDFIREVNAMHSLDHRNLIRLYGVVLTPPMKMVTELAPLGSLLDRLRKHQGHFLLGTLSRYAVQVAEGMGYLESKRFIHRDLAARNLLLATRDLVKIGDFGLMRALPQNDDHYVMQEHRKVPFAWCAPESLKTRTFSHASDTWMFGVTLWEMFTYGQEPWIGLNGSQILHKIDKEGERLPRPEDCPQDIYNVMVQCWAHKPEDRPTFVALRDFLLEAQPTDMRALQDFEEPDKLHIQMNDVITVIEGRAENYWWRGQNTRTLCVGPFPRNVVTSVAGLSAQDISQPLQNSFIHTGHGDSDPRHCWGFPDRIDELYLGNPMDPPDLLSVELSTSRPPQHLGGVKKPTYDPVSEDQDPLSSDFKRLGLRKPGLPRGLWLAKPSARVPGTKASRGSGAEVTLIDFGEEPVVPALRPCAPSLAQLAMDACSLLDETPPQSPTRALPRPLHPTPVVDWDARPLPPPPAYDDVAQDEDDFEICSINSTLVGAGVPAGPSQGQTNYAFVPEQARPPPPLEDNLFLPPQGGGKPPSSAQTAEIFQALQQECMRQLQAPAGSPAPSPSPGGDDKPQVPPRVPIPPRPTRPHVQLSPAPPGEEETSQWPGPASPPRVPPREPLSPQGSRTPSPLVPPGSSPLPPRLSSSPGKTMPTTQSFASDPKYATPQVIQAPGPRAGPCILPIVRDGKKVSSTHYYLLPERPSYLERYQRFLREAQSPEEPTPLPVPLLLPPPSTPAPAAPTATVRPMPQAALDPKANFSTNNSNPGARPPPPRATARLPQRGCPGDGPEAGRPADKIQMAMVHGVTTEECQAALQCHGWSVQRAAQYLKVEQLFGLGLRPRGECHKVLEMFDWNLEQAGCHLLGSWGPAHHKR

On to `Cc1ccc(NC(=O)c2cccc(C(F)(F)F)c2)cc1N1Cc2cnc(N)nc2C2(CC2)C1=O` [Compound 2, N-(3-(2'-amino-7'-oxo-5'H-spiro[cyclopropane-1,8'-pyrido[4,3-d]pyrimidine]-6'(7'H)-yl)-4-methylphenyl)-3-(trifluoromethyl)benzamide], for which the IC50 at ACK1, on Src and against BMX was 10 to 100 nM throughout. Further, the GI50 in the test on SW480 is 1000 to 5000 nM; with SKOV3 it was 1000 to 5000 nM; in the test on AsPC-1, below 1000 nM; in the test with MIA-Paca-2, below 1000 nM; in the test with DLD-1 it was 1000 to 5000 nM; with A549, above 10000 nM. Besides, the GI50 in the test on SW620 is 1000 to 5000 nM; in the test on A172 it was below 1000 nM; in the test on HCI-H460, 1000 to 5000 nM; in the test with HT-29, above 10000 nM; in the test on HCT-116 it was below 1000 nM; with MDA-MB-231 it was 1000 to 5000 nM. Also, the GI50 in the test on C4-2B and in the test with 22Rv1 was 1000 to 5000 nM in each case.
Turning to `Cc1ccc(NC(=O)c2cccc(C(F)(F)F)c2)cc1N1Cc2cnc(NC3CC3)nc2C2(CC2)C1=O` [Compound 3, N-(3-(2'-(cyclopropylamino)-7'-oxo-5'H-spiro[cyclopropane-1,8'-pyrido[4,3-d]pyrimidine]-6'(7'H)-yl)-4-methylphenyl)-3-(trifluoromethyl)benzamide], the figures for the IC50 at ACK1, against Src and on BMX were 10 to 100 nM, 10 to 100 nM and below 10 nM, respectively. Also, the GI50 in the test on SW480, in the test on AsPC-1, in the test with SW620, in the test with HCT-116, in the test with MDA-MB-231 and in the test with C4-2B was 1000 to 5000 nM each time. Moreover, in the test with 22Rv1, the GI50 was above 10000 nM.
As for `Cc1ccc(NC(=O)c2cc(F)cc(C(F)(F)F)c2)cc1N1Cc2cnc(N)nc2C2(CC2)C1=O` [Compound 7, N-(3-(2'-amino-7'-oxo-5'H-spiro[cyclopropane-1,8'-pyrido[4,3-d]pyrimidine]-6'(7'H)-yl)-4-methylphenyl)-3-fluoro-5-(trifluoromethyl)benzamide], the IC50 against ACK1, at Src and against BMX was below 10 nM each time. The GI50 was 1000 to 5000 nM in the test with SW480; below 1000 nM in the test with AsPC-1; 1000 to 5000 nM in the test with SW620; 1000 to 5000 nM in the test with HCT-116; 1000 to 5000 nM with MDA-MB-231; below 1000 nM in the test with C4-2B. Further, the concentration for 50% growth inhibition (GI50) in the test on 22Rv1 is below 1000 nM.
As for `Cc1ccc(NC(=O)c2cncc(C(F)(F)F)c2)cc1N1Cc2cnc(N)nc2C2(CC2)C1=O` [Compound 24, N-(3-(2'-amino-7'-oxo-5'H-spiro[cyclopropane-1,8'-pyrido[4,3-d]pyrimidine]-6'(7'H)-yl)-4-methylphenyl)-5-(trifluoromethyl)nicotinamide], the IC50 at ACK1, at Src and at BMX was below 10 nM in each case. Further, the GI50 in the test with SW480 was 1000 to 5000 nM; with SKOV3 it was 1000 to 5000 nM; with AsPC-1, 1000 to 5000 nM; in the test on MIA-Paca-2, 1000 to 5000 nM; in the test on DLD-1 it was 1000 to 5000 nM; with A549, above 10000 nM. Moreover, the GI50 in the test on SW620 was below 1000 nM; in the test with A172, below 1000 nM; in the test on HCI-H460, 1000 to 5000 nM; with HT-29, above 10000 nM; with HCT-116, below 1000 nM; with MDA-MB-231, 1000 to 5000 nM. For the same compound, the GI50 with C4-2B fell in the range of 1000 to 5000 nM; with 22Rv1, 5000 to 10000 nM.
As to `Cc1ccc(NC(=O)c2cccc(C(F)(F)F)c2)cc1N1Cc2cnc(Nc3cnn(CC(F)(F)F)c3)nc2C2(CC2)C1=O` [Compound 64, N-(4-methyl-3-(7'-oxo-2'-((1-(2,2,2-trifluoroethyl)-1H-pyrazol-4-yl)amino)-5'H-spiro[cyclopropane-1,8'-pyrido[4,3-d]pyrimidine]-6'(7'H)-yl)phenyl)-3-(trifluoromethyl)benzamide], the GI50 in the test with SW480, in the test on AsPC-1, with SW620, with HCT-116 and with MDA-MB-231 was below 1000 nM in each case.
On to `Cc1ccc(NC(=O)c2cccc(C(F)(F)F)c2)cc1N1Cc2cnc(NCCO)nc2C2(CC2)C1=O` [Compound 126, N-(3-(2'-((2-hydroxyethyl)amino)-7'-oxo-5'H-spiro[cyclopropane-1,8'-pyrido[4,3-d]pyrimidine]-6'(7'H)-yl)-4-methylphenyl)-3-(trifluoromethyl)benzamide], for which the figures for the GI50 in the test with A549, in the test on A172 and in the test on HT-29 were 1000 to 5000 nM, 1000 to 5000 nM and 5000 to 10000 nM, respectively.
Regarding `Cc1ccc(NC(=O)c2cccc(C(F)(F)F)c2)cc1N1Cc2cnc(N[C@@H](C)CO)nc2C2(CC2)C1=O` [Compound 127, (S)-N-(3-(2'-((1-hydroxypropan-2-yl)amino)-7'-oxo-5'H-spiro[cyclopropane-1,8'-pyrido[4,3-d]pyrimidine]-6'(7'H)-yl)-4-methylphenyl)-3-(trifluoromethyl)benzamide], the values for the GI50 with A549, in the test with A172 and in the test on HT-29 were above 10000 nM, below 1000 nM and above 10000 nM, respectively.
On to `Cc1ccc(NC(=O)c2cncc(C(F)(F)F)c2)cc1N1Cc2cnc(NCCO)nc2C2(CC2)C1=O` [Compound 130, N-(3-(2'-((2-hydroxyethyl)amino)-7'-oxo-5'H-spiro[cyclopropane-1,8'-pyrido[4,3-d]pyrimidine]-6'(7'H)-yl)-4-methylphenyl)-5-(trifluoromethyl)nicotinamide], for which the results for the GI50 in the test with A549, with A172 and in the test on HT-29 were above 10000 nM, 1000 to 5000 nM and above 10000 nM, respectively.
In the case of `Cc1ccc(NC(=O)c2cncc(C(F)(F)F)c2)cc1N1Cc2cnc(N[C@@H](C)CO)nc2C2(CC2)C1=O` [Compound 131, (S)-N-(3-(2'-((1-hydroxypropan-2-yl)amino)-7'-oxo-5'H-spiro[cyclopropane-1,8'-pyrido[4,3-d]pyrimidine]-6'(7'H)-yl)-4-methylphenyl)-5-(trifluoromethyl)nicotinamide], the GI50 in the test on A549 was above 10000 nM; with A172, 1000 to 5000 nM; in the test with HT-29 it was above 10000 nM.
